From article PMC10487733, “Synthesis, Conformational Analysis and Antitumor Activity of the Naturally Occurring Antimicrobial Medium-Length Peptaibol Pentadecaibin and Spin-Labeled Analogs Thereof” (International Journal of Molecular Sciences, 2023)
Where a SMILES comes first, the peptide text is derived from it. [ ]: non-standard residue; d: D form. TOAC = CC1(C)CC(N)(C(=O)O)CC(C)(C)N1[O]; Phe(ol) = N[C@H](CO)Cc1ccccc1; Aib = CC(C)(N)C(=O)O

Legend:
[1] = Peptide-induced carboxyfluorescein leakage from PE/PG liposomes; settings: PE/PG 7:3 SUVs 0.06 mM, HEPES pH 7.4, 20 min incubation, fluorescence 488/520 nm, relative to Triton X-100; qualitative; more efficient than trichogin GA IV, particularly on these SUVs
Method: (§1) The assay was carried out on model liposomes (small unilamellar vesicles, SUV) of two different compositions, namely phosphatidylcholine/cholesterol (PC/Ch) 7:3 and phosphatidylethanolamine/phosphatidylglycerol (PE/PG) 7:3. Using fluorescence measurements, the ability of the peptides to induce the release of the carboxyfluorescein (CF) dye previously included within SUVs was evaluated.
(§2) The chosen lipid compositions result in different net surface charges on the SUVs. […] On the other hand, when the peptide perturbs the artificial membrane, it causes the leakage of the CF, and therefore leads to an increase in fluorescence intensity. The maximum value of fluorescence intensity, corresponding to the complete destruction of the vesicles via the surfactant Triton X-100, was used as a reference. […]
(§3) Phosphatidylcholine (PC), phosphatidylglycerol (PG), phosphatidylethanolamine (PE) and cholesterol (Ch) were purchased from Avanti Polar Lipids (Alabaster, AL, USA). […] To evaluate the peptide ability to modulate membrane permeability, CF leakage from the liposomes was measured via fluorescence spectroscopy on a Perkin Elmer (Waltham, MA, USA) MPF-66 spectrofluorimeter. The procedure was as follows: 2.5 mL of each SUV at 0.06 mM concentration was inserted in twelve disposable fluorescence cuvettes and fluorescence was recorded (λexc = 488 nm) for all of them at 520 nm (F0). […]

[2] = system: MDA-MB-231 (human triple-negative breast cancer); settings: MDA-MB-231 cells, 24 h exposure to 0–20 µM peptaibol, MTS read-out at 490 nm; value [95% CI]; at least three independent experiments in triplicate
[3] = Circular dichroism in SDS micelles (helix aggregation index); format: physicochemical; settings: CD in 100 mM aqueous SDS micelles, 25 °C, 1 mm cell, 16 scans; ratio is ≈ 0.9 in CH3OH
Method: We performed a CD analysis of the peptides in methanol and in the presence of micelles of sodium dodecyl sulfate (SDS) 100 mM in water.
CD spectra of α-helical peptides feature two negative and one positive maxima centered at about 208, 222 and 195 nm, respectively. Aib-containing peptides are known to fold in 3_10-helices, which is common for peptaibols. In this case, the first negative maximum shifts from 208 to about 205 nm.
CD measurements were acquired on a Jasco J-1500 spectrophotometer (Tokyo, Japan), using a 1 mm pathlength quartz cell (Hellma Analytics, Munich, Germany). Methanol or a solution of sodium dodecyl sulfate (SDS) 100 mM in milliQ water was used as solvent. An amount of 1 mM of solutions of the three peptides in each of the two solvents of choice was prepared. Then, 300 µL of each solution was inserted in the 1 mm quartz cell and the cell put into the cell holder of the Jasco J-1500 instrument. The measurements were performed at 25 °C, acquiring 16 scans. The temperature was kept constant by means of an external Peltier thermostat (ThermoHaake C25P, Karlbruhe, Germany).

[4] = system: A549 (human lung adenocarcinoma); settings: A549 cells, 24 h exposure to 0–20 µM peptaibol, MTS read-out at 490 nm; value [95% CI]; at least three independent experiments in triplicate
[5] = system: SK-OV-3 (human ovarian adenocarcinoma); settings: SK-OV-3 cells, 24 h exposure to 0–20 µM peptaibol, MTS read-out at 490 nm; value [95% CI]; at least three independent experiments in triplicate
[6] = Peptide-induced carboxyfluorescein leakage from PC/Ch liposomes; settings: PC/Ch 7:3 SUVs 0.06 mM, HEPES pH 7.4, 20 min incubation, fluorescence 488/520 nm, relative to Triton X-100; qualitative; more efficient than trichogin GA IV
Method: as §1, §2, §3

[7] = system: MUG-Mel2 (human melanoma); settings: MUG-Mel2 cells, 24 h exposure to 0–20 µM peptaibol, MTS read-out at 490 nm; CI not given; at least three independent experiments in triplicate

| Compound | membrane activity (CF leakage from SUVs) [1] | IC50 [2] [µM] | ratio R = [θ]222/[θ]208 (index of aggregation between helices) [3] | IC50 [4] [µM] | IC50 [5] [µM] | membrane activity (CF leakage from SUVs) [6] | IC50 [7] [µM] |
| --- | --- | --- | --- | --- | --- | --- | --- |
| CC(=O)NC(C)(C)C(=O)NCC(=O)N[C@@H](C)C(=O)N[C@@H](CC(C)C)C(=O)NC(C)(C)C(=O)N[C@@H](CCC(N)=O)C(=O)NC(C)(C)C(=O)N[C@H](C(=O)NC(C)(C)C(=O)N[C@@H](C)C(=O)NC(C)(C)C(=O)NC(C)(C)C(=O)NC(C)(C)C(=O)N[C@@H](CCC(N)=O)C(=O)N[C@H](CO)Cc1ccccc1)C(C)C [VX, pentadecaibin] (Ac-[Aib]GAL[Aib]Q[Aib]V[Aib]A[Aib][Aib][Aib]Q[Phe(ol)]) | equally membrane active | 8.79 | greater than 1 | 9.1 | 11.1 | equally membrane active | 14.2 |
| CC(=O)NC(C)(C)C(=O)NCC(=O)N[C@@H](C)C(=O)N[C@@H](CC(C)C)C(=O)NC(C)(C)C(=O)N[C@@H](CCC(N)=O)C(=O)NC(C)(C)C(=O)N[C@H](C(=O)NC(C)(C)C(=O)N[C@@H](C)C(=O)NC1(C(=O)NC(C)(C)C(=O)NC(C)(C)C(=O)N[C@@H](CCC(N)=O)C(=O)N[C@H](CO)Cc2ccccc2)CC(C)(C)N([O])C(C)(C)C1)C(C)C [To11-VX, [Toac^11]-pentadecaibin] (Ac-[Aib]GAL[Aib]Q[Aib]V[Aib]A[TOAC][Aib][Aib]Q[Phe(ol)]) |  | 8.04 | greater than 1 | 9.7 |  |  | 13.6 |
| CC(=O)NC1(C(=O)NCC(=O)N[C@@H](C)C(=O)N[C@@H](CC(C)C)C(=O)NC(C)(C)C(=O)N[C@@H](CCC(N)=O)C(=O)NC(C)(C)C(=O)N[C@H](C(=O)NC(C)(C)C(=O)N[C@@H](C)C(=O)NC(C)(C)C(=O)NC(C)(C)C(=O)NC(C)(C)C(=O)N[C@@H](CCC(N)=O)C(=O)N[C@H](CO)Cc2ccccc2)C(C)C)CC(C)(C)N([O])C(C)(C)C1 [To1-VX, [Toac^1]-pentadecaibin] (Ac-[TOAC]GAL[Aib]Q[Aib]V[Aib]A[Aib][Aib][Aib]Q[Phe(ol)]) |  | 7.98 | greater than 1 | 11.1 | 9.56 |  | 10.1 |
